Read-outs that look alike come from different tables or passages of the source.
Key:
CYP3A4 = CYP3A4 (Homo sapiens, UniProt P08684); conditions: Human liver microsomes, cited from earlier work
CYP2C9 = molecular target: T1, CYP2C9 (Homo sapiens, UniProt P11712); conditions: Human liver microsomes, cited from earlier work
T1 construct: respectively, were mixed with human liver microsomes; tissue In Vitro Technologies (Noble Park North, VIC, Australia); host or cells: human liver microsomes

[1] = tested on: hypertension rat model established by L-NAME; experiment: Antihypertensive efficacy (tail artery blood pressure) in L-NAME hypertension rat model; type: in vivo, Wistar rats; conditions: model group
Experimental: A total of 48 Wistar rats were treated with L-NAME (60 mg/kg·d^-1) intragastrically for 4 weeks ([[…] al., 2003]; [[…] et al., 2002]; [Ahad et al., 2020a]). Systolic blood pressure (SBP) ≥140 mmHg was considered to be a successful hypertension model and was used to maintain L-NAME treatment until animal death. The blood pressure measurement method was performed as described in previous literature studies and the blood pressure of each rat was determined by the average of 5 measurements by a non-invasive rat tail sphygmomanometer (BP-2006A, Beijing Softron Biotechnology Co., Ltd.) ([Gillis et al., 2020]; [Dias et al., 2021]). This experimental protocol was approved by the Animal Care and Use Committee of Shanghai University of Traditional Chinese Medicine. A total of 36 hypertensive rats and 6 normal rats were included in this experiment. […] A total of 6 normal rats were assigned to a blank group without any treatment. Following the treatment of the rats for 2 weeks, the blood pressure of their tail artery was measured.

[2] = 4 weeks of L-NAME 60 mg/kg/d intragastric

Sequence of CYP3A4 (P08684 whole entry): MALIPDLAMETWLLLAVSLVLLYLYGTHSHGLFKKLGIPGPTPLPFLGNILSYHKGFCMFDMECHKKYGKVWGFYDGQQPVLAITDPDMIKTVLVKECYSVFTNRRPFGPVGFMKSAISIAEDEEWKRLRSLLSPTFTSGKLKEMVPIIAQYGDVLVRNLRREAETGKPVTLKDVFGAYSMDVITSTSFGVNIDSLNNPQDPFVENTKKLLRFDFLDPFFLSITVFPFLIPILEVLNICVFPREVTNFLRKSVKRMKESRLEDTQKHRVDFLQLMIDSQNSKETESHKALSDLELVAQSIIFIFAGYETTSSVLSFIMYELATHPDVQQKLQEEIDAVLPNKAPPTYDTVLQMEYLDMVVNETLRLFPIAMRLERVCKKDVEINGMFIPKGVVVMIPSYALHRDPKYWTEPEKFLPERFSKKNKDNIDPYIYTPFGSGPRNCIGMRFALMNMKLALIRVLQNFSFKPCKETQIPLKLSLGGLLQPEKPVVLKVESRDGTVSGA
T1 sequence (P11712 whole entry): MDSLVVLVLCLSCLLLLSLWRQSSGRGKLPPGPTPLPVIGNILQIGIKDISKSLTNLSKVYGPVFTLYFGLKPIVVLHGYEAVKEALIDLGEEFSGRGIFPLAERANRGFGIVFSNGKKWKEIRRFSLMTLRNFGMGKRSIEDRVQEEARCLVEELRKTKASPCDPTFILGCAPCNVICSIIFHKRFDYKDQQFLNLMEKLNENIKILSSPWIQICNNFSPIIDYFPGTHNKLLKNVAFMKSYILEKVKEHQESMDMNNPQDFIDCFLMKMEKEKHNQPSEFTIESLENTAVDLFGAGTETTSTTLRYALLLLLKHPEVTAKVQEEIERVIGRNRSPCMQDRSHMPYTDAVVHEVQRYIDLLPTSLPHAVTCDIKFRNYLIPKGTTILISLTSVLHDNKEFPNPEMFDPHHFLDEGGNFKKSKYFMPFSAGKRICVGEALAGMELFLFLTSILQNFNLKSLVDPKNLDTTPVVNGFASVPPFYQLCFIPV

For CC(C)=CCC[C@](C)(O[C@@H]1O[C@H](CO[C@@H]2O[C@H](CO)[C@@H](O)[C@H](O)[C@H]2O)[C@@H](O)[C@H](O)[C@H]1O)[C@H]1CC[C@]2(C)[C@@H]1[C@H](O)C[C@@H]1[C@@]3(C)CC[C@H](O[C@@H]4O[C@H](CO)[C@@H](O)[C@H](O)[C@H]4O[C@@H]4O[C@H](CO)[C@@H](O)[C@H](O)[C@H]4O)C(C)(C)[C@@H]3CC[C@]12C [Ginsenoside Rb1], the “Effects on CYP3A4” value (CYP3A4; ref Hao et al. (2008)) is given as “Inhibition”, the “Effects on CYP3A4” value (CYP3A4; ref He and Edeki, (2004)) is given as “Inhibition” and the “Effects on CYP2C9” value (CYP2C9; ref Hao et al. (2008)) is given as “Inhibition”. The “Effects on CYP2C9” value (CYP2C9; ref He and Edeki, (2004)) was “Inhibition”.

For CC(C)=CCC[C@](C)(O[C@@H]1O[C@H](CO)[C@@H](O)[C@H](O)[C@H]1O)[C@H]1CC[C@]2(C)[C@@H]1[C@H](O)C[C@@H]1[C@@]3(C)CC[C@H](O)C(C)(C)[C@@H]3[C@@H](O[C@@H]3O[C@H](CO)[C@@H](O)[C@H](O)[C@H]3O[C@@H]3O[C@@H](C)[C@H](O)[C@@H](O)[C@H]3O)C[C@]12C [Re, Ginsenoside Re], the “Effects on CYP3A4” value (CYP3A4; ref Hao et al. (2008)) is given as “Inhibition” and the “Effects on CYP2C9” value (CYP2C9; ref Hao et al. (2008)) is given as “Inhibition”.

In the case of COc1cc2c(c(OC)c1OC)-c1c(cc(OC)c(OC)c1OC)C[C@](C)(O)[C@@H](C)C2 [schizandrin], the “Effects on CYP3A4” value (CYP3A4; ref Cao et al. (2009)) is given as “Inhibition”.

For CC(C)=CCC[C@](C)(O[C@@H]1O[C@H](CO)[C@@H](O)[C@H](O)[C@H]1O)[C@H]1CC[C@]2(C)[C@@H]1[C@H](O)C[C@@H]1[C@@]3(C)CC[C@H](O)C(C)(C)[C@@H]3[C@@H](O[C@@H]3O[C@H](CO)[C@@H](O)[C@H](O)[C@H]3O)C[C@]12C [Rg1, Ginsenoside Rg1], the “Effects on CYP3A4” value (CYP3A4; ref Hao et al. (2008)) is listed as “Inhibition” and the “Effects on CYP2C9” value (CYP2C9; ref Hao et al. (2008)) is listed as “Inhibition”.

For COC(=O)[C@@H](N)CCCNC(N)=N[N+](=O)[O-] [L-NAME, N (omega)-nitro-L-arginine methyl ester], the “increase in DBP” value [1, 2] was 34.83 ± 8.82 mmHg, the “increase in MAP” value [1, 2] was 36.00 ± 6.10 mmHg and the “increase in SBP” value [1, 2] was 37.83 ± 8.52 mmHg. For the same molecule, the “average increase in DBP” value ([1]; 6 weeks of continuous L-NAME) was 42.33 ± 15.34 mmHg, the “average increase in MAP” value ([1]; 6 weeks of continuous L-NAME) was 46.00 ± 13.11 mmHg and the “average increase in SBP” value ([1]; 6 weeks of continuous L-NAME) was 50.50 ± 6.09 mmHg.
